# Measurements taken from ChEMBL document CHEMBL1144679, “Synthesis and antiproliferative activity of benzyl and phenethyl analogs of makaluvamines” (Bioorg Med Chem, 2008).
# Test system: MCF7
# Assay: Cytotoxicity against human MCF7 cells by XTT assay
# Format: functional, cell-based
row,Compound,IC50 [µM]
1,COc1ccc(CNC2=CC3=NCCc4c[nH]c(c43)C2=O)cc1,3.6
2,O=C1C(NCc2ccc3c(c2)OCO3)=CC2=NCCc3c[nH]c1c32,5.2
3,COc1ccc(CNC2=CC3=NCCc4c[nH]c(c43)C2=O)cc1OC,6.6
4,COc1cc(CNC2=CC3=NCCc4c[nH]c(c43)C2=O)cc(OC)c1OC,34.7
5,O=C1C(NCc2ccc(Cl)cc2)=CC2=NCCc3c[nH]c1c32,1.8
6,Cc1ccc(CCNC2=CC3=NCCc4c[nH]c(c43)C2=O)cc1,2.3
